Data: PubChem BioAssay (NCI)
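Briefly, cells in 96-well plates were exposed to five compound concentrations for 48 h, and endpoints were estimated by linear interpolation. TGI denotes the concentration required for complete inhibition of growth.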

Assays:
Test in all cases: DTP human tumour cell line panel, 48 h
HOP-92 NSCLC = system: HOP-92 NSCLC
HS 578T breast = system: HS 578T breast
SK-MEL-2 melanoma = system: SK-MEL-2 melanoma
OVCAR-3 ovarian = system: OVCAR-3 ovarian
OVCAR-8 ovarian = system: OVCAR-8 ovarian
SN12C renal = system: SN12C renal
CAKI-1 renal = system: CAKI-1 renal
MDA-MB-231 breast = system: MDA-MB-231 breast
K-562 leukemia = system: K-562 leukemia
UO-31 renal = system: UO-31 renal
RXF 393 renal = system: RXF 393 renal

| Structure (SMILES) | TGI (HOP-92 NSCLC) [µM] | TGI (HS 578T breast) [µM] | TGI (SK-MEL-2 melanoma) [µM] | TGI (OVCAR-3 ovarian) [µM] | TGI (OVCAR-8 ovarian) [µM] | TGI (SN12C renal) [µM] | TGI (CAKI-1 renal) [µM] | TGI (MDA-MB-231 breast) [µM] | TGI (K-562 leukemia) [µM] | TGI (UO-31 renal) [µM] | TGI (RXF 393 renal) [µM] |
| --- | --- | --- | --- | --- | --- | --- | --- | --- | --- | --- | --- |
| Cc1ccc(C(=O)N/N=C(\N=Nc2ccccc2C(=O)O)c2ccc(N(C)C)cc2)cc1 | > 100 | > 100 | > 100 | 99.3 | > 100 | > 100 | > 100 | > 100 | > 100 | > 100 |  |
| CSc1nc(-c2ccccc2)nc(=[N+]2CCOCC2)s1 |  |  | > 100 | > 100 | > 100 | > 100 |  |  | > 100 | > 100 | > 100 |
| NS(=O)(=O)c1ccc(NCc2nc3ccccc3[nH]2)cc1 | > 100 | > 100 | > 100 | > 100 | > 100 | > 100 | > 100 | > 100 |  | > 100 | > 100 |
| CN1C/C(=C\c2cccs2)C(=O)/C(=C/c2cccs2)C1 | 67.3 | > 100 | 48.9 | > 100 | 74 | 76.5 | > 100 | 48.3 | > 100 | 45 | 54.8 |
| Cc1cc(OCC(O)CO)ccc1Cl (configuration not stated) | > 100 |  | > 100 | > 100 | > 100 | > 100 | > 100 |  | > 100 | > 100 | > 100 |
| CC(C)(C)OC(=O)NNCC(O)COc1ccccc1 (configuration not stated) | > 100 | > 100 | > 100 | > 100 | > 100 | > 100 | > 100 | > 100 | > 100 | > 100 | > 100 |
| Cc1ccc(C)c2c1n1c(=O)n(C)c(=O)n21 | > 100 | > 100 | > 100 | > 100 | > 100 | > 100 | > 100 | > 100 |  | > 100 | > 100 |
| Cc1cc(O)c(C(C)C)cc1C(=S)Nc1ccc(Cl)cc1 |  | 28.9 | 27.8 | 27.9 | 24.2 |  | 27.9 |  | 23.4 |  |  |
| COc1ccc(/C=C2\OC(=O)C(Cl)=C2c2ccc(OC)c(Cl)c2)cc1 | 46.1 | 73.7 | > 100 | 43.7 | 60.8 |  | 56.8 |  | > 100 | 48.2 | 29.5 |
| NC(=S)NS(=O)(=O)c1ccc(Cl)cc1 |  | > 100 | > 100 | > 100 | > 100 | > 100 | > 100 | > 100 | > 100 |  | > 100 |
| CC1=NN2CCC(=O)N=C2S1 | > 100 | > 100 | > 100 | > 100 | > 100 | > 100 | > 100 | > 100 | > 100 |  | > 100 |
